Measurements from the supplement of paper PMC11665569.

What was measured:
H358 [1] = assay: relative viability (fraction of vehicle control); higher = more viable / less inhibited; conditions: treatment time: 5 days
Procedure: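 CCK-8 viability of H358 cells with empty vector or constitutively active YAP S127A, treated with KRAS G12C inhibitors for 5 days. Absorbance at 450 nm normalised to vehicle control.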

H1792 = conditions: siRNA knockdown (Con = control): Con; treatment time: 5 days
Procedure: (§1)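 CCK-8 viability of KRAS G12C-mutant cancer cell lines transfected with control, YAP/TAZ or TEAD1-4 siRNAs and treated with KRAS G12C inhibitors for 5 days; IC50 fitted in Prism after normalising absorbance at 450 nm to vehicle control.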

MIAPACA2 = conditions: treatment time: 5 days
Procedure: as §1

H358 [2] = conditions: treatment time: 5 days
Procedure: as §1

KYSE410 = conditions: treatment time: 5 days
Procedure: as §1

H2030 = conditions: treatment time: 5 days
Procedure: as §1

H1373 = conditions: treatment time: 5 days
Procedure: as §1

SW1573 = assay: relative viability (fraction of vehicle control); higher = more viable / less inhibited; conditions: treatment time: 5 days
Procedure: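 CCK-8 viability of SW1573 cells transfected with control, YAP/TAZ or TEAD1-4 siRNAs and treated with KRAS G12C inhibitors for 5 days. Values are normalised to vehicle control.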

C=CC(=O)N1CCN(c2nc(=O)n(-c3c(C)ccnc3C(C)C)c3nc(-c4c(O)cccc4F)c(F)cc23)[C@@H](C)C1 [AMG510]
Conditions | IC50 (cell viability, 5 days) [µM] | relative viability
H358 [1], log10 concentration (uM): 0, ectopic expression: YAP S127A | – | 0.42
H358 [1], log10 concentration (uM): 0, ectopic expression: empty vector (YAP experiment) | – | 0.15
H358 [1], log10 concentration (uM): 1, ectopic expression: YAP S127A | – | 0.46
H358 [1], log10 concentration (uM): 1, ectopic expression: empty vector (YAP experiment) | – | 0.183
H358 [1], log10 concentration (uM): 1.301029996, ectopic expression: YAP S127A | – | 0.327
H358 [1], log10 concentration (uM): 1.301029996, ectopic expression: empty vector (YAP experiment) | – | 0.172
H358 [1], log10 concentration (uM): -1, ectopic expression: YAP S127A | – | 0.453
H358 [1], log10 concentration (uM): -1, ectopic expression: empty vector (YAP experiment) | – | 0.256
H358 [1], log10 concentration (uM): -1.30103, ectopic expression: YAP S127A | – | 0.52
H358 [1], log10 concentration (uM): -1.30103, ectopic expression: empty vector (YAP experiment) | – | 0.433
H358 [1], log10 concentration (uM): -2, ectopic expression: YAP S127A | – | 0.727
H358 [1], log10 concentration (uM): -2, ectopic expression: empty vector (YAP experiment) | – | 0.822
H358 [1], log10 concentration (uM): -2.30103, ectopic expression: YAP S127A | – | 0.753
H358 [1], log10 concentration (uM): -2.30103, ectopic expression: empty vector (YAP experiment) | – | 0.822
H358 [1], log10 concentration (uM): -3, ectopic expression: YAP S127A | – | 0.96
H358 [1], log10 concentration (uM): -3, ectopic expression: empty vector (YAP experiment) | – | 0.828
H358 [1], log10 concentration (uM): -4, ectopic expression: YAP S127A | – | 0.873
H358 [1], log10 concentration (uM): -4, ectopic expression: empty vector (YAP experiment) | – | 1.01
H358 [2], siRNA knockdown (Con = control): Con | 0.00718 | –
H358 [2], siRNA knockdown (Con = control): TEAD1234_si1 | 0.00408 | –
H358 [2], siRNA knockdown (Con = control): TEAD1234_si2 | 0.00417 | –
H358 [2], siRNA knockdown (Con = control): YAP_WWTR1_si1 | 0.00408 | –
H358 [2], siRNA knockdown (Con = control): YAP_WWTR1_si2 | 0.00296 | –
H1373, siRNA knockdown (Con = control): Con | 0.0307 | –
H1373, siRNA knockdown (Con = control): YAP_WWTR1_si1 | 0.0102 | –
H1373, siRNA knockdown (Con = control): YAP_WWTR1_si2 | 0.00431 | –
H2030, siRNA knockdown (Con = control): TEAD1234_si2 | 0.0109 | –
H2030, siRNA knockdown (Con = control): YAP_WWTR1_si1 | 0.00818 | –
KYSE410, siRNA knockdown (Con = control): Con | 3.54 | –
KYSE410, siRNA knockdown (Con = control): TEAD1234_si1 | 0.853 | –
KYSE410, siRNA knockdown (Con = control): YAP_WWTR1_si1 | 0.163 | –
KYSE410, siRNA knockdown (Con = control): YAP_WWTR1_si2 | 0.0335 | –
MIAPACA2, siRNA knockdown (Con = control): Con | 0.163 | –
MIAPACA2, siRNA knockdown (Con = control): TEAD1234_si1 | 0.0661 | –
MIAPACA2, siRNA knockdown (Con = control): TEAD1234_si2 | 0.0575 | –
MIAPACA2, siRNA knockdown (Con = control): YAP_WWTR1_si1 | 0.0463 | –
MIAPACA2, siRNA knockdown (Con = control): YAP_WWTR1_si2 | 0.0699 | –
SW1573, log10 concentration (uM): 0, siRNA knockdown: TEAD1-4 siRNA 1 | – | 0.313
SW1573, log10 concentration (uM): 0, siRNA knockdown: TEAD1-4 siRNA 2 | – | 0.433
SW1573, log10 concentration (uM): 0, siRNA knockdown: YAP/TAZ siRNA 1 | – | 0.262
SW1573, log10 concentration (uM): 0, siRNA knockdown: YAP/TAZ siRNA 2 | – | 0.182
SW1573, log10 concentration (uM): 0, siRNA knockdown: negative control siRNA | – | 0.809
SW1573, log10 concentration (uM): 1, siRNA knockdown: TEAD1-4 siRNA 1 | – | 0.397
SW1573, log10 concentration (uM): 1, siRNA knockdown: TEAD1-4 siRNA 2 | – | 0.515
SW1573, log10 concentration (uM): 1, siRNA knockdown: YAP/TAZ siRNA 1 | – | 0.554
SW1573, log10 concentration (uM): 1, siRNA knockdown: YAP/TAZ siRNA 2 | – | 0.357
SW1573, log10 concentration (uM): 1, siRNA knockdown: negative control siRNA | – | 0.782
SW1573, log10 concentration (uM): 1.301029996, siRNA knockdown: TEAD1-4 siRNA 1 | – | 0.138
SW1573, log10 concentration (uM): 1.301029996, siRNA knockdown: TEAD1-4 siRNA 2 | – | 0.288
SW1573, log10 concentration (uM): 1.301029996, siRNA knockdown: YAP/TAZ siRNA 1 | – | 0.337
SW1573, log10 concentration (uM): 1.301029996, siRNA knockdown: YAP/TAZ siRNA 2 | – | 0.257
SW1573, log10 concentration (uM): 1.301029996, siRNA knockdown: negative control siRNA | – | 0.461
SW1573, log10 concentration (uM): -1, siRNA knockdown: TEAD1-4 siRNA 1 | – | 0.338
SW1573, log10 concentration (uM): -1, siRNA knockdown: TEAD1-4 siRNA 2 | – | 0.365
SW1573, log10 concentration (uM): -1, siRNA knockdown: YAP/TAZ siRNA 1 | – | 0.164
SW1573, log10 concentration (uM): -1, siRNA knockdown: YAP/TAZ siRNA 2 | – | 0.111
SW1573, log10 concentration (uM): -1, siRNA knockdown: negative control siRNA | – | 0.783
SW1573, log10 concentration (uM): -1.30103, siRNA knockdown: TEAD1-4 siRNA 1 | – | 0.346
SW1573, log10 concentration (uM): -1.30103, siRNA knockdown: TEAD1-4 siRNA 2 | – | 0.421
SW1573, log10 concentration (uM): -1.30103, siRNA knockdown: YAP/TAZ siRNA 1 | – | 0.183
SW1573, log10 concentration (uM): -1.30103, siRNA knockdown: YAP/TAZ siRNA 2 | – | 0.147
SW1573, log10 concentration (uM): -1.30103, siRNA knockdown: negative control siRNA | – | 0.792
SW1573, log10 concentration (uM): -2, siRNA knockdown: TEAD1-4 siRNA 1 | – | 0.562
SW1573, log10 concentration (uM): -2, siRNA knockdown: TEAD1-4 siRNA 2 | – | 0.502
SW1573, log10 concentration (uM): -2, siRNA knockdown: YAP/TAZ siRNA 1 | – | 0.323
SW1573, log10 concentration (uM): -2, siRNA knockdown: YAP/TAZ siRNA 2 | – | 0.244
SW1573, log10 concentration (uM): -2, siRNA knockdown: negative control siRNA | – | 0.886
SW1573, log10 concentration (uM): -2.30103, siRNA knockdown: TEAD1-4 siRNA 1 | – | 0.672
SW1573, log10 concentration (uM): -2.30103, siRNA knockdown: TEAD1-4 siRNA 2 | – | 0.725
SW1573, log10 concentration (uM): -2.30103, siRNA knockdown: YAP/TAZ siRNA 1 | – | 0.437
SW1573, log10 concentration (uM): -2.30103, siRNA knockdown: YAP/TAZ siRNA 2 | – | 0.37
SW1573, log10 concentration (uM): -2.30103, siRNA knockdown: negative control siRNA | – | 0.934
SW1573, log10 concentration (uM): -3, siRNA knockdown: TEAD1-4 siRNA 1 | – | 0.815
SW1573, log10 concentration (uM): -3, siRNA knockdown: TEAD1-4 siRNA 2 | – | 0.893
SW1573, log10 concentration (uM): -3, siRNA knockdown: YAP/TAZ siRNA 1 | – | 0.615
SW1573, log10 concentration (uM): -3, siRNA knockdown: YAP/TAZ siRNA 2 | – | 0.587
SW1573, log10 concentration (uM): -3, siRNA knockdown: negative control siRNA | – | 1
SW1573, log10 concentration (uM): -4, siRNA knockdown: TEAD1-4 siRNA 1 | – | 0.98
SW1573, log10 concentration (uM): -4, siRNA knockdown: TEAD1-4 siRNA 2 | – | 0.974
SW1573, log10 concentration (uM): -4, siRNA knockdown: YAP/TAZ siRNA 1 | – | 0.969
SW1573, log10 concentration (uM): -4, siRNA knockdown: YAP/TAZ siRNA 2 | – | 0.928
SW1573, log10 concentration (uM): -4, siRNA knockdown: negative control siRNA | – | 1.02

Conditions | IC50 (cell viability, 5 days) [µM]
H1792 | 6.33
